Assay: xn = mol fraction of the nth substance listed
Settings: 101 kPa, Liquid; for speed of sound: Sing-around technique in a fixed-path interferometer; for mass density: Vibrating tube method

NCCNCCN [di(2-aminoethyl)amine] + CCCCO
Settings	mass density [kg/m3]	speed of sound [m/s]	viscosity [mPa·s]
293.15 K, x1 = 0.0517	821.995	1288	–
293.15 K, x1 = 0.1085	834.306	1319.9	–
293.15 K, x1 = 0.153	843.084	1343.3	–
293.15 K, x1 = 0.2024	852.085	1369.5	–
293.15 K, x1 = 0.2524	860.585	1393.7	–
293.15 K, x1 = 0.3079	869.265	1419.6	–
293.15 K, x1 = 0.4082	883.406	1464.1	–
293.15 K, x1 = 0.5013	895.464	1502.4	–
293.15 K, x1 = 0.6067	908.152	1543.5	–
293.15 K, x1 = 0.7079	919.755	1581.6	–
293.15 K, x1 = 0.8	929.638	1616.5	–
293.15 K, x1 = 0.8548	935.634	1637	–
293.15 K, x1 = 0.9075	941.042	1656.6	–
293.15 K, x1 = 0.9525	945.451	1673.3	–
298.15 K, x1 = 0.0517	818.115	1271	3.066
298.15 K, x1 = 0.1085	830.363	1302.9	3.551
298.15 K, x1 = 0.153	839.101	1327.1	3.907
298.15 K, x1 = 0.2024	848.068	1351.9	4.256
298.15 K, x1 = 0.2524	856.54	1376.5	4.526
298.15 K, x1 = 0.3079	865.207	1402.5	4.772
298.15 K, x1 = 0.4082	879.335	1446.5	5.076
298.15 K, x1 = 0.5013	891.374	1484.6	5.214
298.15 K, x1 = 0.6067	904.038	1525.4	5.317
298.15 K, x1 = 0.7079	915.617	1562.9	5.331
298.15 K, x1 = 0.8	925.474	1597.5	5.368
298.15 K, x1 = 0.8548	931.448	1617.8	5.433
298.15 K, x1 = 0.9075	936.842	1637.4	5.485
298.15 K, x1 = 0.9525	941.233	1653.8	5.562
303.15 K, x1 = 0.0517	814.209	1254.2	2.576
303.15 K, x1 = 0.1085	826.401	1285.9	3.027
303.15 K, x1 = 0.153	835.096	1309.9	3.256
303.15 K, x1 = 0.2024	844.036	1335.1	3.52
303.15 K, x1 = 0.2524	852.484	1359.6	3.768
303.15 K, x1 = 0.3079	861.136	1385.5	3.919
303.15 K, x1 = 0.4082	875.244	1429.3	4.169
303.15 K, x1 = 0.5013	887.28	1467.1	4.262
303.15 K, x1 = 0.6067	899.921	1507.7	4.302
303.15 K, x1 = 0.7079	911.479	1545.1	4.323
303.15 K, x1 = 0.8	921.305	1579.2	4.335
303.15 K, x1 = 0.8548	927.266	1598.6	4.346
303.15 K, x1 = 0.9075	932.668	1617.5	4.366
303.15 K, x1 = 0.9525	937.017	1633.6	4.422
308.15 K, x1 = 0.0517	810.286	1237.4	2.27
308.15 K, x1 = 0.1085	822.424	1269.3	2.622
308.15 K, x1 = 0.153	831.084	1293.2	2.81
308.15 K, x1 = 0.2024	839.988	1318.5	3.027
308.15 K, x1 = 0.2524	848.419	1343	3.198
308.15 K, x1 = 0.3079	857.059	1368.6	3.341
308.15 K, x1 = 0.4082	871.155	1412.2	3.524
308.15 K, x1 = 0.5013	883.174	1450.2	3.617
308.15 K, x1 = 0.6067	895.798	1490	3.642
308.15 K, x1 = 0.7079	907.33	1527.2	3.671
308.15 K, x1 = 0.8	917.129	1560.9	3.689
308.15 K, x1 = 0.8548	923.082	1580.1	3.712
308.15 K, x1 = 0.9075	928.432	1598.6	3.731
308.15 K, x1 = 0.9525	932.798	1614.5	3.771
313.15 K, x1 = 0.0517	806.326	1220.9	–
313.15 K, x1 = 0.1085	818.415	1253.3	–
313.15 K, x1 = 0.153	827.042	1277.3	–
313.15 K, x1 = 0.2024	835.917	1302.4	–
313.15 K, x1 = 0.2524	844.331	1327.4	–
313.15 K, x1 = 0.3079	852.959	1352.7	–
313.15 K, x1 = 0.4082	867.047	1396.2	–
313.15 K, x1 = 0.5013	879.057	1433.9	–
313.15 K, x1 = 0.6067	891.664	1473.9	–
313.15 K, x1 = 0.7079	903.173	1510.5	–
313.15 K, x1 = 0.8	912.964	1543.6	–
313.15 K, x1 = 0.8548	918.81	1563	–
313.15 K, x1 = 0.9075	924.23	1580.1	–
313.15 K, x1 = 0.9525	928.584	1594.8	–

Source: the NIST ThermoML archive (doi:10.1016/j.tca.2011.06.003)
